# Measurements as given in patent publication US20240398768A1, “METHODS OF TREATING SOLID TUMOR USING HETEROAROMATIC MACROCYCLIC ETHER COMPOUNDS” (Nuvalent, Inc., priority 2021, published 2024).
# Where two headings read alike, the source gives them in different places.
# Key:
# CYP2C8 = biological target: T1, CYP2C8 (Homo sapiens, UniProt P10632); test: CYP inhibition; assay type: in vitro ADME
# T1 sequence (P10632 1-490): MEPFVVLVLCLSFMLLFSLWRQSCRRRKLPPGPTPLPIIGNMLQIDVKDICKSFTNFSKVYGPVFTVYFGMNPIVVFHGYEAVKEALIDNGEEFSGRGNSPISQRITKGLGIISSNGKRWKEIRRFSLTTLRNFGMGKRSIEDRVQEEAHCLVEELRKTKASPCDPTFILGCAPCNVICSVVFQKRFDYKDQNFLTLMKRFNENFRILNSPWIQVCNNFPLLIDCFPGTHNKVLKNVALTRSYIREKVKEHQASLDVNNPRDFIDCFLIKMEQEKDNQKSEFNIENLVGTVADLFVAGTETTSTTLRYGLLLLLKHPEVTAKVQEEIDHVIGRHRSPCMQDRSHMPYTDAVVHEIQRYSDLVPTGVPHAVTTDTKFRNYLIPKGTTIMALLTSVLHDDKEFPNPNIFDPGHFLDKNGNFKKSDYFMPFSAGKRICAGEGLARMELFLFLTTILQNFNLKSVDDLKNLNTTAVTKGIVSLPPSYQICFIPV
# CYP3A4 = CYP3A4 (Homo sapiens, UniProt P08684); test: CYP inhibition; assay type: in vitro ADME; details: for IC50: CYP3A4 inhibition
# CYP3A4, sequence (P08684 whole entry): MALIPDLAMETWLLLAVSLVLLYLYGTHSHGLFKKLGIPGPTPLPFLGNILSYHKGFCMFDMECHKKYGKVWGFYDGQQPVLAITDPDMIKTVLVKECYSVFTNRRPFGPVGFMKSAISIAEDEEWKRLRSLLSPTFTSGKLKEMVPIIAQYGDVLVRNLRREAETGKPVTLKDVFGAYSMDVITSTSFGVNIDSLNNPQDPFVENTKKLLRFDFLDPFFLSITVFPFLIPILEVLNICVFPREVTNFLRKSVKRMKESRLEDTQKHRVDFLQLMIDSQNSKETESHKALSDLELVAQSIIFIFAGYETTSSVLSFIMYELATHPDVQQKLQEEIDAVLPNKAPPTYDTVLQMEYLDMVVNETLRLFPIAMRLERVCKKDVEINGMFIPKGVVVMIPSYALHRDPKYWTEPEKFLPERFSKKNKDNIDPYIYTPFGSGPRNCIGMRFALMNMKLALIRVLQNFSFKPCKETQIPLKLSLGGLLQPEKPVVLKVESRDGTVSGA
# CYP1A2 = biological target: T2, CYP1A2 (Homo sapiens, UniProt P05177); test: CYP substrate assessment; assay type: in vitro ADME
# T2 sequence (P05177 1-516): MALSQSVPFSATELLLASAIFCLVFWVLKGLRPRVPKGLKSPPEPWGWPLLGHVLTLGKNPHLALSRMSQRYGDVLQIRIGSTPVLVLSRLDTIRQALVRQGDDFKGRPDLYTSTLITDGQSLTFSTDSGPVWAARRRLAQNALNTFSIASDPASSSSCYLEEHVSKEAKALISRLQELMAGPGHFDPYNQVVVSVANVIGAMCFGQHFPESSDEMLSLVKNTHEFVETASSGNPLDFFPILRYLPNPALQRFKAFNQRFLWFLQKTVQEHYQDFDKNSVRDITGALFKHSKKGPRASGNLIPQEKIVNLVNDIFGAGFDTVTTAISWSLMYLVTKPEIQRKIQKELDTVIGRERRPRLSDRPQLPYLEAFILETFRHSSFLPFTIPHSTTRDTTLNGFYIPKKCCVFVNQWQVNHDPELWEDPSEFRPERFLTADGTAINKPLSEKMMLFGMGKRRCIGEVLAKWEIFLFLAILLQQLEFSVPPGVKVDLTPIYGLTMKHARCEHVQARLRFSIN
# [1] = Phase 1/2 clinical study: pharmacokinetics; assay type: in vivo, human; details: for half-life: read-out: t1/2 (converted)
# Source text: Each cycle of treatment is 28 days.
# [2] = Cycle 1 Day 1, 25 mg QD, geometric mean
# [3] = Cycle 1 Day 1, 50 mg QD, geometric mean
# [4] = Cycle 1 Day 1, 75 mg QD, geometric mean
# [5] = Cycle 1 Day 1, 100 mg QD, geometric mean
# [6] = Cycle 1 Day 1, 125 mg QD, geometric mean
# [7] = Cycle 1 Day 15, 25 mg QD, geometric mean
# [8] = Cycle 1 Day 15, 50 mg QD, geometric mean
# [9] = Cycle 1 Day 15, 75 mg QD, geometric mean
# [10] = Cycle 1 Day 15, 100 mg QD, geometric mean
# [11] = Cycle 1 Day 15, 125 mg QD, geometric mean
# [12] = Cycle 1 Day 15, 125 mg QD, single value
# [13] = human, plasma, oral, 25 mg, Cycle 1 Day 1, 25 mg QD, geometric mean
smiles,measurement,setting,value
"CCn1ncc2c1-c1cnc(N)c(c1)O[C@H](C)c1cc(F)ccc1-c1nn(C)nc1C2 [Compound 1, (19R)-3-ethyl-16-fluoro-10,19-dimethyl-20-oxa-3,4,9,10,11,23-hexaazapentacyclo [19.3.1.0^2,^6.0^8,^12.0^13,^18]pentacosa-1 (24),2 (6),4,8,11,13,15,17,21 (25),22-decaen-22-amine]",IC50,CYP2C8,70 µM
same,inhibitor of CYP3A4 (testosterone) and CYP3A4 (midazolam),CYP3A4,potential inhibitor
same,IC50,CYP3A4; midazolam,30 µM
same,IC50,CYP3A4; testosterone,62.7 µM
same,metabolism contribution from CYP1A2,CYP1A2,potential for contributions
same,PK exposure,[1]; 25-100 mg once daily,dose-dependent exposure
same,AUCinf—DN,[1]; [2],78.6 ng·h/mL/mg
same,AUClast—DN,[1]; [2],54.4 ng·h/mL/mg
same,CL/F,[1]; [2],12.7 L/h
same,Cmax—DN,[1]; [2],8.0 ng/mL/mg
same,AUCinf—DN,[1]; [3],81.8 ng·h/mL/mg
same,AUClast—DN,[1]; [3],61.8 ng·h/mL/mg
same,CL/F,[1]; [3],12.2 L/h
same,Cmax—DN,[1]; [3],6.8 ng/mL/mg
same,AUCinf—DN,[1]; [4],79.1 ng·h/mL/mg
same,AUClast—DN,[1]; [4],53.4 ng·h/mL/mg
same,CL/F,[1]; [4],12.6 L/h
same,Cmax—DN,[1]; [4],8.6 ng/mL/mg
same,AUCinf—DN,[1]; [5],86.9 ng·h/mL/mg
same,AUClast—DN,[1]; [5],57.2 ng·h/mL/mg
same,CL/F,[1]; [5],11.5 L/h
same,Cmax—DN,[1]; [5],8.0 ng/mL/mg
same,AUCinf—DN,[1]; [6],47.8 ng·h/mL/mg
same,AUClast—DN,[1]; [6],40.1 ng·h/mL/mg
same,CL/F,[1]; [6],20.9 L/h
same,Cmax—DN,[1]; [6],7.5 ng/mL/mg
same,Rac,"[1]; Cycle 1 Day 15, 25 mg QD, arithmetic mean",1.8
same,AUCinf—DN,[1]; [7],196.0 ng·h/mL/mg
same,AUCtau—DN,[1]; [7],111.4 ng·h/mL/mg
same,CLss/F,[1]; [7],8.8 L/h
same,Cmax—DN,[1]; [7],10.0 ng/mL/mg
same,Rac,"[1]; Cycle 1 Day 15, 50 mg QD, arithmetic mean",1.6
same,AUCinf—DN,[1]; [8],121.5 ng·h/mL/mg
same,AUCtau—DN,[1]; [8],86.6 ng·h/mL/mg
same,CLss/F,[1]; [8],11.5 L/h
same,Cmax—DN,[1]; [8],13.7 ng/mL/mg
same,Rac,"[1]; Cycle 1 Day 15, 75 mg QD, arithmetic mean",2.0
same,AUCinf—DN,[1]; [9],180.3 ng·h/mL/mg
same,AUCtau—DN,[1]; [9],93.5 ng·h/mL/mg
same,CLss/F,[1]; [9],10.7 L/h
same,Cmax—DN,[1]; [9],9.7 ng/mL/mg
same,Rac,"[1]; Cycle 1 Day 15, 100 mg QD, arithmetic mean",2.1
same,AUCinf—DN,[1]; [10],110.4 ng·h/mL/mg
same,AUCtau—DN,[1]; [10],63.9 ng·h/mL/mg
same,CLss/F,[1]; [10],15.6 L/h
same,Cmax—DN,[1]; [10],8.2 ng/mL/mg
same,AUCtau—DN,[1]; [11],52.8 ng·h/mL/mg
same,CLss/F,[1]; [11],18.9 L/h
same,Cmax—DN,[1]; [11],5.9 ng/mL/mg
same,AUCinf—DN,[1]; [12],60.0 ng·h/mL/mg
same,Rac,[1]; [12],1.5
same,exposure in clinical trial versus target levels that provide regression in preclinical models,"[1]; data as of Sep. 13, 2022",exceeded the target levels
same,half-life,"[1]; human, plasma, oral, 25 mg, Cycle 1 Day 1, 25 mg QD, arithmetic mean",15.5 h
same,AUC(0-inf),[1]; [13],1960 ng·h/mL
same,Cmax,[1]; [13],199 ng/mL
same,Vd/F,"[1]; human, plasma, oral, 25 mg, Cycle 1 Day 1, 25 mg QD, geometric mean, read-out: Vz/F",270 L
same,Tmax,"[1]; human, plasma, oral, 25 mg, Cycle 1 Day 1, 25 mg QD, median",1 h
same,half-life,"[1]; human, plasma, oral, 25 mg, Cycle 1 Day 15, 25 mg QD, arithmetic mean",20.3 h
same,AUC(0-inf),"[1]; human, plasma, oral, 25 mg, Cycle 1 Day 15, 25 mg QD, geometric mean",4900 ng·h/mL
